{"source": "patent US20210169984A1", "about": "“SENSITIZING CANCER TO DEATH RECEPTOR AGONISTS WITH KINASE INHIBITORS” (The Johns Hopkins University, priority 2016, published 2021)", "key": {"[1]": {"settings": "in vivo; cited from earlier work"}, "[2]": {"system": "cancer patients", "settings": "cited from earlier work"}, "[3]": {"settings": "mouse, in vivo; cited from earlier work"}, "[4]": {"system": "TRAIL-resistant cancer cells (HT29, MDA-MB-231, LNCAP, DU145, PC3, A549)", "assay": "Cell death after TRAIL / TRAILPEG alone in various cancer cells (FIG. 2A)", "type": "cell-based, human", "settings": "TRAIL 1 μg/mL for 24 hours", "protocol": "Quantified cell death data after TRAIL (1 μg/mL) treatment for 24 hours in various cancer cell types are shown. Human tumor cell lines include: colon (HT-29, SW620, HCT116), prostate (PC3), breast (MDA-MD-231, MCF-7), lung (A549). HCT116 represents a TRAIL-sensitive colorectal tumor for comparison. HEK293T is a normal human kidney cell line.\n(§1) A library of KIs was screened for TRAIL sensitization in various TRAIL-resistant cancer cells, including: HT29 (CRC), MDA-MB-231 (breast), LNCAP (prostate), DU145 (prostate), PC3 (prostate) and A549 (lung). […] The 355 KIs comprised of compounds targeting diverse kinases, including multi kinases, RTK (receptor kinase tyrosine), PI3K (phosphinistide 3-kinase), aurora kinases, including […] (mitogen-activated protein kinase). […] The interaction between KIs and TRAIL had been previously explored in vitro with the tyrosine KI sorafenib, a drug similar to regorafenib. However, such studies were mostly performed on cellular levels and not in in vivo models, combined with systemically administered recombinant TRAIL. Although a similar structure, regorafenib was newly approved in 2012. The interactions between the three other selected KIs and TRAIL have not been previously reported, in vitro or in vivo."}, "[5]": {"system": "PC3 prostate adenocarcinoma cells", "assay": "KI library screen for TRAIL sensitization", "type": "cell-based, human", "protocol": "FIG. 2B depicts a bar graph showing quantified cell death after analyzing synergized cell death induced by TRAILPEG (1 μg/mL for 3 hr) and kinase inhibitors (KIs) in HT29 (human colon tumor cell line) and PC3 (human prostate tumor cell line) cells individually pretreated with selected 355 KIs. Relative cell death rates were calculated by [KI+TRAILPEG]/[KI alone] after separate MTT assays. The arrows indicate KIs with >60% cell death; n=3.\nas §1"}, "[6]": {"system": "HT29 xenografts", "assay": "TRAIL-resistant HT29 tumor xenograft", "type": "in vivo", "settings": "oral regorafenib 10 mg/kg days 12, 14, 16; TRAILPEG 150 μg i.v. days 13, 15, 17; sacrifice day 27", "protocol": "(§2) FIG. 5 depicts a bar graph showing results of tumor volumes in mice bearing TRAIL-resistant HT29 tumors treated with three rounds of TRAILPEG (150 μg, i.v), oral regorafenib (10 mg/kg) or oral regorafenib with TRAILPEG within days (12-17) after tumor inoculation. Mice were sacrificed on day 27. […] FIG. 6A depicts a Western blot analysis of LNCAP prostate cancer cells with regorafenib alone or in combination with TRAILPEG.\nThe therapeutic combination of oral regorafenib and TRAILPEG in HT29 xenografts in comparison to regorafenib and TRAILPEG alone (FIG. 7) were investigated. HT29 xenografts were treated with oral regorafenib (10 mg/kg) or saline on the 12th, 14th, and 16th days of tumor inoculation. On the 13th, 15th, and 17th days, animals were given an i.v. dose of TRAILPEG (150 μg). Animals were sacrificed on day 27."}, "[7]": {"system": "HT29 cells", "assay": "Western blot of DR4/5 and anti-apoptotic proteins (FIG. 4B)", "type": "cell-based, human", "settings": "regorafenib, 48 hours", "protocol": "(§3) HT29 cells were treated with regorafenib (2 μM) for 24 hour or 48 hour as indicated. mRNAs for TRAIL receptors were measured by quantitative RT-PCR (qPCR) (FIG. 4A). […] After treating HT29 cells with regorafenib as indicated, DR4/5 or anti-apoptotic proteins were analyzed by Western blot (FIG. 4B). […] Conversely, anti-apoptotic proteins MCL-1 and BCL-2 were absent in HT29 cells treated with regorafenib for 48 hours. It has been previously reported that TRAIL receptors could be induced by signaling including NF-κB, ER stress, and JNK-ROS."}, "[8]": {"system": "prostate cancer cells (LNCAP, DU145, PC-3)", "assay": "Western blot of prostate cancer cells, regorafenib alone or with TRAILPEG (FIG. 6A-6C)", "type": "cell-based, human", "protocol": "as §2\nFIG. 6B depicts a Western blot analysis of DU145 prostate cancer cells with regorafenib alone or in combination with TRAILPEG.\nFIG. 6C depicts a Western blot analysis of PC-3 prostate cancer cells with regorafenib alone or in combination with TRAILPEG.\n(§4) Regorafenib potentiated TRAIL-induced apoptosis in prostate cancer cells (LNCAP, HPLNCAP (High Passages LNCAP), DU-145 and PC-3) when combined with TRAILPEG (1 μg/mL) (FIG. 5). After treating cells with regorafenib (5 μM), caspases and anti-apoptotic proteins were analyzed by western blotting (FIG. 6A-FIG. 6C). […] Data confirmed that FDA-approved KIs or KIs under clinical development synergized with long-acting TRAILPEG by overcoming TRAIL-resistance through unique TRAIL sensitization mechanisms."}, "[9]": {"system": "HP LNCAP prostate adenocarcinoma cells", "assay": "KI library screen for TRAIL sensitization", "type": "cell-based, human", "description": "as §1, §4"}, "[10]": {"system": "HT29 cells", "assay": "Western blot of caspases and anti-apoptotic proteins, regorafenib alone or with TRAILPEG (FIG. 3B)", "type": "cell-based, human", "protocol": "FIG. 3B depicts a Western blot analysis of HT29 cells with regorafenib alone or in combination with TRAILPEG.\nas §4, with “HT-29” for “prostate cancer”, “cells” for “cells (LNCAP, HPLNCAP (High Passages LNCAP), DU-145 and PC-3)”, “3A).” for “5).”, “(2” for “(5”, “3B).” for “6A-FIG. 6C).”"}, "[11]": {"system": "HT29 cells", "assay": "qPCR of death receptors and decoy receptors (FIG. 4A)", "type": "cell-based, human", "settings": "regorafenib 2 μM", "protocol": "FIG. 4A depicts a bar graph showing qPCR analysis of death receptors (DRs) and decoy receptors (DcRs) in HT29 cells treated with regorafenib for 24 hours or 48 hours as indicated; *P<0.05, **P<0.01, ***P<0.001 versus control.\nas §3"}, "[12]": {"system": "HT29 (CRC) cells", "assay": "KI library screen for TRAIL sensitization (KI pretreatment, then TRAILPEG; MTT cell death assay)", "type": "cell-based, human", "quoted_text": "The screening is performed using an MTT cell death assay in CRC cells with different TRAIL sensitivities."}, "[13]": {"system": "HT-29 cells", "assay": "Quantified cell death after combinatorial treatment with regorafenib and TRAILPEG (FIG. 3A)", "type": "cell-based, human", "settings": "regorafenib combined with TRAILPEG 1 μg/mL", "protocol": "FIG. 3A depicts a bar graph showing that regorafenib (an oral, multi-kinase inhibitor) enhanced TRAILPEG -induced apoptosis in colorectal cancer (CRC) cells. Quantified cell death after combinatorial treatment with regorafenib and TRAILPEG (1 μg/mL) in HT-29 cells is shown.\nas §4, with “HT-29” for “prostate cancer”, “cells” for “cells (LNCAP, HPLNCAP (High Passages LNCAP), DU-145 and PC-3)”, “3A).” for “5).”, “(2” for “(5”, “3B).” for “6A-FIG. 6C).”"}, "[14]": {"system": "prostate cancer cells (LNCAP, HPLNCAP, DU-145 and PC-3)", "assay": "Quantified cell death after regorafenib and TRAILPEG in prostate cancer cells", "type": "cell-based, human", "settings": "regorafenib 5 μM combined with TRAILPEG 1 μg/mL", "protocol": "FIG. 7 is a bar graph showing that regorafenib enhanced TRAILPEG-induced apoptosis in prostate cancer cells. Quantified cell death after combinatorial treatment with regorafenib (5 μM) and TRAILPEG (1 μg/mL) in various prostate cancer cells is shown. *P<0.05, **P<0.01, ***P<0.001 versus control (regorafenib only).\nas §4"}, "[15]": {"settings": "regorafenib 5 μM combined with TRAILPEG"}}, "note": "“Also recorded” adds a separate entry of the source."}
{"compound": "dulanermin: recombinant TRAIL, native-type, short-acting", "values": [{"measurement": "half-life", "setting": "[1]", "result": 5, "unit": "min"}, {"measurement": "therapeutic benefit", "setting": "[2]; cancer patients, monotherapy studies", "result": "failed to demonstrate a robust therapeutic benefit"}, {"measurement": "anticancer activity", "setting": "[2]; combined with chemotherapy, lung and colon cancer patients", "result": "did not reveal improved anticancer activity"}, {"measurement": "tolerability", "setting": "[2]; human, in vivo", "result": "broad tolerability"}]}
{"compound": "TRAIL: Tumor necrosis factor (TNF)-related apoptosis-inducing ligand, member of the TNF family", "values": [{"measurement": "circulating half-life", "setting": "[3]", "result": 1.1, "unit": "h"}, {"measurement": "TRAIL-induced apoptosis (cell death) by TRAIL", "setting": "[4]", "result": "resistance to TRAIL-induced apoptosis"}]}
{"compound": "CNC(=O)c1cc(Oc2ccc(NC(=O)Nc3ccc(Cl)c(C(F)(F)F)c3)c(F)c2)ccn1", "note": "[Regorafenib (BAY 73-4506), Regorafenib]", "values": [{"measurement": "KIs that sensitize cancer cells to TRAIL-based agents", "setting": "[5]", "result": "Example KIs that sensitize cancer cells to TRAIL-based agents."}, {"measurement": "tumor growth / tumor volume", "setting": "[6]", "result": "moderate tumor reduction"}, {"measurement": "DR4 protein", "setting": "[7]; listed as Regorafenib", "result": "highly expressed"}, {"measurement": "DR4 protein", "setting": "[7]; listed as regorafenib", "result": "up-regulation"}, {"measurement": "anti-apoptotic proteins MCL-1 and BCL-2", "setting": "[7]; listed as regorafenib", "result": "absent; also recorded: down-regulated"}, {"measurement": "anti-apoptotic protein MCL-1", "setting": "[8]; [15]", "result": "downregulated"}, {"measurement": "caspase-dependent TRAILPEG-induced apoptosis (PARP-1 cleavage, caspase activation)", "setting": "[8]; [15]", "result": "significantly sensitized"}, {"measurement": "apoptosis by single agent", "setting": "[8]; regorafenib or TRAILPEG alone", "result": "did not induce strong apoptosis"}, {"measurement": "KIs that sensitize cancer cells to TRAIL-based agents", "setting": "[9]", "result": "Example KIs that sensitize cancer cells to TRAIL-based agents."}, {"measurement": "RIP-1", "setting": "[10]", "result": "dose-dependently downregulated"}, {"measurement": "anti-apoptotic proteins c-FLIP, MCL-1, BCL-2, and BCL-XL", "setting": "[10]; regorafenib 2 μM", "result": "downregulated"}, {"measurement": "caspase-dependent TRAILPEG-induced apoptosis (PARP-1 cleavage, caspase activation)", "setting": "[10]; regorafenib 2 μM", "result": "significantly sensitized"}, {"measurement": "DR4 mRNA", "setting": "[11]; 24 or 48 hour", "result": "significantly upregulate; also recorded: upregulated"}, {"measurement": "DRS mRNA", "setting": "[11]; 24 or 48 hour", "result": "minimally induced"}, {"measurement": "DcR2 expression", "setting": "[11]; 48 hour", "result": "down-regulating; also recorded: rarely detectable"}, {"measurement": "efficacy when combined with TRAILPEG (relative cell death, KI+TRAILPEG / KI alone)", "setting": "[12]; HT29 cells pretreated with KI for 24 hours before TRAILPEG", "result": "synergistic efficacy"}, {"measurement": "KIs that sensitize cancer cells to TRAIL-based agents", "setting": "[12]; HT-29 colorectal adenocarcinoma", "result": "Example KIs that sensitize cancer cells to TRAIL-based agents."}, {"measurement": "TRAIL-induced apoptosis", "setting": "[13]; listed as Regorafenib", "result": "potentiated"}, {"measurement": "TRAIL-induced apoptosis", "setting": "[13]; listed as regorafenib", "result": "enhanced"}, {"measurement": "TRAIL-induced apoptosis", "setting": "[14]; listed as Regorafenib", "result": "potentiated"}, {"measurement": "TRAIL-induced apoptosis", "setting": "[14]; listed as regorafenib", "result": "enhanced"}]}
